Measured values from patent US20250388605A1, “HETEROBIFUNCTIONAL COMPOUNDS AND METHODS OF TREATING DISEASE” (Halda Therapeutics OpCo, Inc., priority 2022, published 2025).

Experiments:
VCaP cells = assay: Cellular growth inhibition assay for VCaP cells, CellTiter-Glo; assay type: cell-based, human; settings: 72 hours
Outline: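 GI50 values come from four-parameter curve fits of luminescence data normalized to a zero baseline. Compound, in medium with 0.5% DMSO, was added one day after plating and left for 72 h before CellTiter-Glo 2.0 addition.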

[1] = system: T-Rex 293 cell line SC3 cells lacking increased expression of androgen receptor protein; assay: Cellular growth inhibition, T-Rex 293 SC3 cells without doxycycline (no increased androgen receptor expression), CellTiter-Glo; assay type: cell-based; settings: T-Rex 293 SC3 cells not exposed to doxycycline (no increased androgen receptor expression), 72 hours
Outline: (§1)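 Growth inhibition is measured in an inducible AR-expressing T-Rex 293 clone, SC3, cultured with or without 10 ng/mL doxycycline in hormone-depleted medium. Test compounds are applied for 72 hours. GI50 values derive from CellTiter-Glo 2.0 signal fitted by four-parameter regression.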

BRD4-BD2 = biological target: T1, BRD4-BD2 (Homo sapiens, UniProt O60885); assay: Binding affinity to BRD4-BD2 (bromoKdELECT assay); settings: 11-point 3-fold dilution series
T1 construct: made in house; host or cells: T7 phage grown in an E. coli host derived from the BL21 strain

[2] = system: T-Rex 293 cell line SC3 cells having increased expression of androgen receptor protein due to exposure to doxycycline; assay: Cellular growth inhibition, T-Rex 293 SC3 cells with doxycycline (increased androgen receptor expression), CellTiter-Glo; assay type: cell-based; settings: T-Rex 293 SC3 cells with 10 ng/mL doxycycline (increased androgen receptor expression), 72 hours, CellTiter-Glo 2.0
Outline: as §1

| Compound | GI50 (VCaP cells) [nM] | Kd (BRD4-BD2) [nM] | GI50 (VCaP cells; Homo sapiens) [nM] | GI50 [1] [nM] | GI50 [2] [nM] |
| --- | --- | --- | --- | --- | --- |
| Cn1cc(-c2cc(C(C)(C)O)ccc2Oc2cccc(N3CC(CC4CCN(c5ncc(C(=O)N[C@H]6C(C)(C)[C@H](Oc7ccc(C#N)c(Cl)c7)C6(C)C)cn5)CC4)C3)c2F)c2cc[nH]c2c1=O [Compound I-196] | > 3000 | < 50 |  | > 3000 | < 500 |
| CN(CCCc1ccc(Oc2ccc(C(C)(C)O)cc2-c2cn(C)c(=O)c3[nH]ccc23)cc1)c1ncc(C(=O)N[C@H]2C(C)(C)[C@H](Oc3ccc(C#N)c(Cl)c3)C2(C)C)cn1 [Compound I-211] |  | 50 to 500 | < 500 | < 500 | < 500 |
| CC(C)N(CC1CCN(c2ncc(C(=O)N[C@H]3C(C)(C)[C@H](Oc4ccc(C#N)c(Cl)c4)C3(C)C)cn2)CC1)[C@H]1C[C@H](Oc2cccc(Oc3ccc(C(C)(C)O)cc3-c3cn(C)c(=O)c4[nH]ccc34)c2F)C1 [Compound I-214] |  | < 50 | < 500 | < 500 | < 500 |
| CCS(=O)(=O)c1ccc(OC(CCCCN2CCN(c3ncc(C(=O)NC4C(C)(C)C(Oc5ccc(C#N)c(Cl)c5)C4(C)C)cn3)CC2)C2CC2)c(-c2cn(C)c(=O)c3[nH]ccc23)c1 (centres unmarked) [Compound I-223, N-[3-(3-chloro-4-cyano-phenoxy)-2,2,4,4-tetramethyl-cyclobutyl]-2-[4-[5-cyclopropyl-5-[4-ethylsulfonyl-2-(6-methyl-7-oxo-1H-pyrrolo[2,3-c]pyridin-4-yl)phenoxy]pentyl]piperazin-1-yl]pyrimidine-5-carboxamide] |  | < 50 | < 500 | < 500 | < 500 |
| Cn1cc(-c2cc(C(C)(C)O)ccc2Oc2ccc(N3CC(CN4CC5CC4CN5c4ncc(C(=O)N[C@H]5C(C)(C)[C@H](Oc6ccc(C#N)c(Cl)c6)C5(C)C)cn4)C3)cc2)c2cc[nH]c2c1=O (some centres unmarked) [Compound I-228] |  | < 50 | < 500 | < 500 | < 500 |
| CCS(=O)(=O)c1ccc(OCC(CCCN2CCN(c3ncc(C(=O)NC4C(C)(C)C(Oc5ccc(C#N)c(Cl)c5)C4(C)C)cn3)CC2)C2CC2)c(-c2cn(C)c(=O)c3[nH]ccc23)c1 (centres unmarked) [Compound I-231, N-[3-(3-chloro-4-cyano-phenoxy)-2,2,4,4-tetramethyl-cyclobutyl]-2-[4-[4-cyclopropyl-5-[4-ethylsulfonyl-2-(6-methyl-7-oxo-1H-pyrrolo[2,3-c]pyridin-4-yl)phenoxy]pentyl]piperazin-1-yl]pyrimidine-5-carboxamide] |  | < 50 | < 500 | < 500 | < 500 |

Second part, led by results:

| GI50 (VCaP cells) [nM] | Kd (BRD4-BD2) [nM] | GI50 (VCaP cells; Homo sapiens) [nM] | Compound | GI50 [1] [nM] | GI50 [2] [nM] |
| --- | --- | --- | --- | --- | --- |
|  | < 50 | < 500 | CN(c1ccc(Oc2ccc(C(C)(C)O)cc2-c2cn(C)c(=O)c3[nH]ccc23)cc1)C1CCN(c2ncc(C(=O)N[C@H]3C(C)(C)[C@H](Oc4ccc(C#N)c(Cl)c4)C3(C)C)cn2)CC1 [Compound I-197] | < 500 | < 500 |
|  | > 2500 | 1500 to 3000 | Cn1cc(-c2cc(C(C)(C)O)ccc2Oc2ccc(CCC3CCN(c4ncc(C(=O)N[C@H]5C(C)(C)[C@H](Oc6ccc(C#N)c(Cl)c6)C5(C)C)cn4)CC3)cc2)c2cc[nH]c2c1=O [Compound I-203] | > 3000 | < 500 |
